Assay results published in patent US7696184B2, “Amino-propanol derivatives as sphingosine-1-phosphate receptor modulator” (Novartis AG, priority 2003, dated 2010).

What was measured:
[1] = biological target: T1, human S1P receptor EDG-1 (S1P1) (Homo sapiens, UniProt P21453); assay: S1P receptor profiling, GTP[γ-35S] binding SPA, S1P1; type: biochemical; settings: for EC50: GTP[γ-35S] binding, membranes of transfected CHO or RH7777 cells
T1 construct: expressed in transfected cells
Procedure: (§1) Sphingosine-1-phosphate (S1P) Receptor Profiling
(§2) Agonist activities of compounds are tested on the human SIP receptors EDG-1 (S1P1), EDG-3 (S1P3), EDG-5 (S1P2), EDG-6 (S1P4) and EDG-8 (S1P5). […] The assay technology used is SPA (scintillation proximity based assay). Briefly, DMSO dissolved compounds are serially diluted and added to SPA-bead (Amersham-Pharmacia) immobilised S1P receptor expressing membrane protein (10-20 μg/well) in the presence of 50 mM Hepes, 100 mM NaCl, 10 mM MgCl2, 10 μM GDP, 0.1% fat free BSA and 0.2 nM GTP [γ-^35S] (1200 Ci/mmol). After incubation in 96 well microtiterplates at RT for 120 min, unbound GTP [γ-^35S] is separated by a centrifugation step. Luminescence of SPA beads triggered by membrane bound GTP [γ-^35S] is quantified with a TOPcount plate reader (Packard). EC50s are calculated using standard curve fitting software.

[2] = biological target: T2, human S1P receptor EDG-5 (S1P2) (Homo sapiens, UniProt O95136); assay: S1P receptor profiling, GTP[γ-35S] binding SPA, S1P2; type: biochemical; settings: membranes of transfected CHO or RH7777 cells
T2 construct: expressed in transfected cells
Procedure: as §1, §2

[3] = biological target: T3, human S1P receptor EDG-3 (S1P3) (Homo sapiens, UniProt Q99500); assay: S1P receptor profiling, GTP[γ-35S] binding SPA, S1P3; type: biochemical; settings: membranes of transfected CHO or RH7777 cells
T3 construct: expressed in transfected cells
Procedure: as §1, §2

[4] = biological target: T4, human S1P receptor EDG-6 (S1P4) (Homo sapiens, UniProt O95977); assay: S1P receptor profiling, GTP[γ-35S] binding SPA, S1P4; type: biochemical; settings: for EC50: GTP[γ-35S] binding, membranes of transfected CHO or RH7777 cells; for S1P4 mode of action: column beside S1P4 EC50
T4 construct: expressed in transfected cells
T4 sequence (O95977 1-384): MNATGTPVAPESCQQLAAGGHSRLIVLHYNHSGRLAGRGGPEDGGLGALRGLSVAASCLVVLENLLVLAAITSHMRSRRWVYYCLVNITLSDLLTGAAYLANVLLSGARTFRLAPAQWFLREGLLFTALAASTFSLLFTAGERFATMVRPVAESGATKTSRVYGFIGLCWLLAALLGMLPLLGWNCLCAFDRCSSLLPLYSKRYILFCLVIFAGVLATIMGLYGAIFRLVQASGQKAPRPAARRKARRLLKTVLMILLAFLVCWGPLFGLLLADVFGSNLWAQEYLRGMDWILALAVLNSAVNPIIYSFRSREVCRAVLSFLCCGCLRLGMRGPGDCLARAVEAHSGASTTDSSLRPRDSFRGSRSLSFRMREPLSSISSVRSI
Procedure: as §1, §2

[5] = biological target: T5, human S1P receptor EDG-8 (S1P5) (Homo sapiens, UniProt Q9H228); assay: S1P receptor profiling, GTP[γ-35S] binding SPA, S1P5; type: biochemical; settings: for EC50: GTP[γ-35S] binding, membranes of transfected CHO or RH7777 cells; for S1P5 mode of action: column beside S1P5 EC50
T5 construct: expressed in transfected cells
Procedure: as §1, §2

[6] = system: peripheral blood lymphocytes; assay: In vivo: Blood Lymphocyte Depletion; settings: rats, p.o.
Procedure: B. In vivo: Blood Lymphocyte Depletion
A compound of formula I or the vehicle is administered orally by gavage to rats. Tail blood for hematological monitoring is obtained on day -1 to give the baseline individual values, and at 2, 6, 24, 48 and 72 hours after application. In this assay, the compounds of formula I deplete peripheral blood lymphocytes when administered at a dose of 0.03 to 3 mg/kg. For example, following results are obtained: depletion of peripheral blood lymphocytes by more than 50%

T2 sequence (O95136 whole entry): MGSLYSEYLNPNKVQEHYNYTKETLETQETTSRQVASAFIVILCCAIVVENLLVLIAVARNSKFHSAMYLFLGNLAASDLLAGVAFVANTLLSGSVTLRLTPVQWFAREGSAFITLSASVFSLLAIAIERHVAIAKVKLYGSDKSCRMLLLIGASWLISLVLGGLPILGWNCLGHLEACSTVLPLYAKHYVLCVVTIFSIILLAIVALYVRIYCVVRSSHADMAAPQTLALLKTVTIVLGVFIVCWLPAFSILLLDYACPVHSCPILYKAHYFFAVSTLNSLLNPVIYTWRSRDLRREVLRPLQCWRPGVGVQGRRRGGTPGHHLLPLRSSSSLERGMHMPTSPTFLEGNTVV
T5 sequence (Q9H228 whole entry): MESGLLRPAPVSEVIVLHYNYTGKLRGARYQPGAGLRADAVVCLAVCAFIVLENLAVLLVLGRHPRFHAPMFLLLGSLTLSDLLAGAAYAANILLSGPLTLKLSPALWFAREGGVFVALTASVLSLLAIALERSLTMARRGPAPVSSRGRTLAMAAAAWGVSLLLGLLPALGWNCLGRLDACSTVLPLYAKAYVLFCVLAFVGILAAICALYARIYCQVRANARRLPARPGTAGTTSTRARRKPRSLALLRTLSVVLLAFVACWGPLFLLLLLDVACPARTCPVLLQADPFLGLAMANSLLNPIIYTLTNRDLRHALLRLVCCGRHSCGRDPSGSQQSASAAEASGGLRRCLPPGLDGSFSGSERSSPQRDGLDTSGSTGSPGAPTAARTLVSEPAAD
T1 sequence (P21453 whole entry): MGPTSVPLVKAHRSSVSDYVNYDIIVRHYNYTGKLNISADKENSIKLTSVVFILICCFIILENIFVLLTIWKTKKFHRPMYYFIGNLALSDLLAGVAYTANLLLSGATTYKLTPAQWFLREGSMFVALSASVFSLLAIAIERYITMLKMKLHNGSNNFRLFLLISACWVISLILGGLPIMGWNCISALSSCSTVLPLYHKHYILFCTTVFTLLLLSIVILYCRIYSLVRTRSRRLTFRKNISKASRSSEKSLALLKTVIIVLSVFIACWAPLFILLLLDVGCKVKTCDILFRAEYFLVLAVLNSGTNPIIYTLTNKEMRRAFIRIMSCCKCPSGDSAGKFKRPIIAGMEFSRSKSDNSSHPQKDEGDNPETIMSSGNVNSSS
T3 sequence (Q99500 whole entry): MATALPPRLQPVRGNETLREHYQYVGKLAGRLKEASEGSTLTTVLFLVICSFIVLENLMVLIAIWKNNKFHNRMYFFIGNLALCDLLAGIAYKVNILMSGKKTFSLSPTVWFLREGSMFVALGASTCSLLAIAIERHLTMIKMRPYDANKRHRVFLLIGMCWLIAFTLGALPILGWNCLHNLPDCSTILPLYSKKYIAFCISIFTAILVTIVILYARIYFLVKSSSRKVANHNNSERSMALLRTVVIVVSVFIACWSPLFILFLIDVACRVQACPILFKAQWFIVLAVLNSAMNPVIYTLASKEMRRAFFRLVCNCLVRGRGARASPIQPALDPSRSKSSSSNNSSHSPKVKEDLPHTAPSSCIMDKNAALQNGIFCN

EC50 [1] [nM]	EC50 [2] [nM]	EC50 [3] [nM]	EC50 [4] [nM]	EC50 [5] [nM]	S1P1 mode of action [1]	S1P4 mode of action [4]	S1P5 mode of action [5]	SMILES	dose giving depletion of peripheral blood lymphocytes by more than 50% ([6]; after 6 h) [mg/kg]	dose giving depletion of peripheral blood lymphocytes by more than 50% ([6]; after 48 h) [mg/kg]
0.3	> 10000	111	> 10000	2.5				CCOc1ccc(CCOc2c(Cl)cc(CC[C@@](C)(N)COP(=O)(O)O)cc2OC)cc1 [Example 10, Phosphoric acid mono-((R)-2-amino-4-{3-chloro-4-[2-(4-ethoxy-phenyl)-ethoxy]-5-methoxy-phenyl}-2-methyl-butyl)ester]		
								CCCCCOc1c(Cl)cc(CC[C@@](C)(N)CO)cc1Cl [Example 1, (R)-2-Amino-4-(3,5-dichloro-4-pentyloxy-phenyl)-2-methyl-butan-1-ol Hydrotriflate]	0.5	> 1
0.2	> 10000	> 10000	0.2	0.2	Agon.	Agon.	Agon.	CCCCCOc1c(Cl)cc(CC[C@@](C)(N)COP(=O)(O)O)cc1Cl [Example 4, Phosphoric acid mono-[(R)-2-amino-4-(3,5-dichloro-4-pentyloxy-phenyl)-2-methyl-butyl]ester]		
1.3	> 10000	> 10000	0.8	0.2	Agon.	Agon.	Agon.	COc1cc(CC[C@@](C)(N)COP(=O)(O)O)cc(Cl)c1OCCCC(F)(F)C(F)(F)F [Example 6, Phosphoric acid mono-{(R)-2-amino-4-[3-chloro-5-methoxy-4-(4,4,5,5,5-pentafluoro-pentyloxy)-phenyl]-2-methyl-butyl}ester]		
								CCOc1ccc(CCOc2c(Cl)cc(CC[C@@](C)(N)CO)cc2OC)cc1 [Example 9, (R-2-Amino-4-{3-chloro-4-[2-(4-ethoxy-phenyl)-ethoxy]-5-methoxy-phenyl}-2-methyl-butan-1-ol Hydrotriflate]	0.2	
								COc1cc(CC[C@@](C)(N)CO)cc(Cl)c1OCCCC(F)(F)C(F)(F)F.Cl [Example 5, (R)-2-Amino-4-[3-chloro-5-methoxy-4-(4,4,5,5,5-pentafluoro-pentyloxy)-phenyl]-2-methyl-butan-1-ol Hydrochloride]	0.2	> 1
